pIC50: −log10 of the molar value.
Experiments:
GST tagged PIP4KtypeIIB = target: T1, GST tagged PIP4KtypeIIB (Homo sapiens, UniProt P78356); assay: Trans-FI P kinase assay PIP4K2B (PIP4KtypeIIB inhibition assay); format: biochemical; conditions: Table 4; compounds listed under IC50 range headings; 100 uM GTP, 5 nM PIP4KIIB; read-out: Trans-FI P kinase assays: PIP4K2B IC50
T1 construct: made in house; host or cells: E. coli
T1 sequence (P78356 1-416): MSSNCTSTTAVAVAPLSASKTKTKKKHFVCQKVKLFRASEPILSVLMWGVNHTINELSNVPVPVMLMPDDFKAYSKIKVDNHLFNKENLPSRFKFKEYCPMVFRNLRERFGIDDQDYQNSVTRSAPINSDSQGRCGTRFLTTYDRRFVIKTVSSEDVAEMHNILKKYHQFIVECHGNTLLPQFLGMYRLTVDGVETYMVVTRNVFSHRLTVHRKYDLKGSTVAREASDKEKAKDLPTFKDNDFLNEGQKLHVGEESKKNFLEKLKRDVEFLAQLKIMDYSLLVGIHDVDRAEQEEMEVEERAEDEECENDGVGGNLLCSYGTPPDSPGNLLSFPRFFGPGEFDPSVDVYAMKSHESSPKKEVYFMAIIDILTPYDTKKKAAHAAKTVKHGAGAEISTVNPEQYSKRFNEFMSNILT
Method in brief: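 Purified GST-PIP4KIIB (5 nM final), 1 h preincubation with compound at 27 C, then 2 h reaction with 100 uM GTP and 80 uM PI5P plus DOPE carrier lipid in pH 7.3 HEPES/MgCl2/Triton buffer with 5% DMSO. GDP read by Transcreener FI fluorescence against a calibration curve; IC50 from % no-inhibitor activity vs log concentration.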

GST tagged PIP4KtypeIIA = target: T2, GST tagged PIP4KtypeIIA (Homo sapiens, UniProt P48426); assay: ADP-glo kinase assay PIP4K 2A (PIP4KtypeIIA inhibition assay); format: biochemical; conditions: Table 3; compounds listed under IC50 range headings; 10 uM ATP, 0.5 nM PIP4KIIA
T2 construct: made in house; host or cells: E. coli
T2 sequence (P48426 1-406): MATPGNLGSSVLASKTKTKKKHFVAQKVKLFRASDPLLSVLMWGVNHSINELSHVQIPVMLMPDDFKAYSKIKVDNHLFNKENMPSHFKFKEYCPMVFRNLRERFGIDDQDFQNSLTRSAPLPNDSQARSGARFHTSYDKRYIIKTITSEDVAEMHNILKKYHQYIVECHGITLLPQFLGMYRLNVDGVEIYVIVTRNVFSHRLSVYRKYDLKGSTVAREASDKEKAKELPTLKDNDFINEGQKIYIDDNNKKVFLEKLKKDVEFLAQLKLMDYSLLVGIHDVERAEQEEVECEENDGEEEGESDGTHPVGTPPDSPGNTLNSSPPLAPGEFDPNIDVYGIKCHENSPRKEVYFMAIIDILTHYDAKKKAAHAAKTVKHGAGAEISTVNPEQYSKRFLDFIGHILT
From the text: GST tagged PIP4KtypeIIA and B enzymes were overexpressed in E. Coli and purified to >80% homogeneity. Phosphatidyl inositol-5-phosphate (PI5P, Cat. #850152, Avanti Polar Lipids Inc.) was used as the lipid substrate and phosphatidyl ethanolamine (DOPE 18:1, Cat. #850725, Avanti Polar Lipids Inc.) was used as the carrier lipid for assays. Ultrapure ATP and GTP was purchased from Bellbrooke Labs. ADP Glo reagents were obtained from Promega. Transcreener FI reagent was obtained from Bellbrooke labs.
1. HEPES buffer mix: 200 mM HEPES pH 7.4, 50 mM MgCl2, 0.05% v/v triton×100
2. HNE buffer: 20 mM HEPES, pH 7.4, 100 mM NaCl, 0.5 mM EGTA
3. H:E buffer: 30 mM HEPES, pH 7.4, 1 mM EGTA
Enzyme preparation: GST-tagged PIP4KtypeIIA (5 uL, 1.43 mg/mL) was diluted (1:10) to 50 uL using HNE buffer. From the 1:10 diluted stock, a 6.4 uL aliquot was diluted further to 5 mL using HNE buffer to yield 5× enzyme stock (2.5 nM).
Lipid Preparation: In a 10 mL pyrex glass vial, lug of PI5P and lug of DOPE were suspended in 2.5 mL of HEPES buffer mix and 2.5 mL of H:E buffer. The contents were mixed and sonicated for 3 min to yield a translucent lipid stock.
Compound Preparation: Compounds were stored as 5 mM stocks in neat DMSO as room temperature in glass vials. 5 mM stocks were diluted to 2 mM and then serially diluted (3×) in neat DMSO in 96 well polypropylene plates. From the serially diluted stocks, 3 uL was delivered into 250 uL of 25% DMSO (in water) to generate 5× compound stocks. Typically, the highest compound conc. was 24 uM.
The assay volume was kept at 25 uL. To each well of the reaction plate, 10 uL of lipid stock (1:1 ratio PI5P:DOPE) was delivered. This was followed by the addition of 5 uL of compound in 25% DMSO. Then, to each well, 5 uL of 2.5 nM (5×) typeIIA enzyme was delivered. The contents were mixed well and incubated for 1 h at 27 C. After 1 h, reaction was initiated by adding 5 uL of 50 uM ATP and the contents were mixed well with a multi-channel pipetteman. The final concentration of the reagents are as follows: 50 mM HEPES, pH 7.3, 10 mM MgCl2, 20 mM NaCl, 0.01% v/v triton-X100, 5% DMSO, 10 uM ATP, 80 uM (2 ug) PI5P, 2 ug DOPE, and 0.5 nM PIP4KIIA. Typically, the highest conc. of compounds was 4.8 uM and the lowest conc. was 0.
After 1 hr, the reaction was quenched by adding 25 uL of ADP Glo reagent. The contents were incubated for 1 hr. Afterwards, 50 uL of kinase detection reagent was delivered. The contents were incubated for another hour. The luminescence was read using Molecular Devices Paradigm plate reader. […] The blanks were averaged and subtracted from all other wells. Using a calibration curve, RLU was converted to uM ADP (product). IC50 was calculated by plotting the residual activity (expressed as % No inhibitor control) vs. log [Inh. conc.]

| SMILES | pIC50 (GST tagged PIP4KtypeIIB) | pIC50 (GST tagged PIP4KtypeIIA) |
| --- | --- | --- |
| CC(C)c1[nH]c2ncc(C(=O)N(C)C)cc2c1-c1cncc(-c2ccc(N3CCCC3=O)cc2)c1 [Example 269, 2-isopropyl-N,N-dimethyl-3-(5-(4-(2-oxopyrrolidin-1-yl)phenyl)pyridin-3-yl)-1H-pyrrolo[2,3-b]pyridine-5-carboxamide] | 6.00 to 7.00 | 6.00 to 7.00 |
| Cc1nc(-c2cncc(-c3ccc(N4CCCC4=O)cc3)c2)c2sc(N3CCCCC3)nc2n1 [Example 286, 1-(4-(5-(5-methyl-2-(piperidin-1-yl)thiazolo[4,5-d]pyrimidin-7-yl)pyridin-3-yl)phenyl)pyrrolidin-2-one] | 6.00 to 7.00 | 7.00 to 8.00 |
| O=C(Nc1ccc(-c2cncc(-c3ccnc4[nH]ncc34)c2)cc1)C(=O)N1CC2CCC1C2 (centres unmarked) [Example 203, N-(4-(5-(1H-pyrazolo[3,4-b]pyridin-4-yl)pyridin-3-yl)phenyl)-2-(2-azabicyclo[2.2.1]heptan-2-yl)-2-oxoacetamide] | 5.30 to 5.60 | 6.00 to 7.00 |
| CCc1cccc2c1CC(=O)N2c1ccc(-c2cncc(-c3ccnc4c3cc3n4CCN(C)C3=O)c2)cc1 [Example 209, 4-(5-(4-(4-ethyl-2-oxoindolin-1-yl)phenyl)pyridin-3-yl)-7-methyl-8,9-dihydropyrido[3′,2′:4,5]pyrrolo[1,2-a]pyrazin-6(7H)-one] | 5.60 to 6.00 | < 5.30 |
| CN1CCn2c(cc3c(-c4cncc(-c5ccc(N6C(=O)Cc7ccccc76)cc5)c4)ccnc32)C1=O [Example 202, 7-methyl-4-(5-(4-(2-oxoindolin-1-yl)phenyl)pyridin-3-yl)-8,9-dihydropyrido[3′,2′:4,5]pyrrolo[1,2-a]pyrazin-6(7H)-one] | < 5.30 | < 5.30 |
| CN(C)C(=O)c1cnc2occ(-c3cncc(-c4ccc(N5CCCC5=O)cc4)c3)c2c1 [Example 282, N,N-dimethyl-3-(5-(4-(2-oxopyrrolidin-1-yl)phenyl)pyridin-3-yl)furo[2,3-b]pyridine-5-carboxamide] | 6.00 to 7.00 | 7.00 to 8.00 |
| Cc1cc(N2CCCC2=O)ccc1-c1cncc(-c2cn(C)c3ncc([C@@H](C)O)cc23)c1 (single isomer, unassigned) [197(R)] | 5.60 to 6.00 | 6.00 to 7.00 |
| COCc1cc(-c2cncc(-c3ccc(N4CCCC4=O)cc3)c2)n2nc(C)cc2n1 [Example 285, 1-(4-(5-(5-(methoxymethyl)-2-methylpyrazolo[1,5-a]pyrimidin-7-yl)pyridin-3-yl)phenyl)pyrrolidin-2-one] | 5.30 to 5.60 | 5.30 to 5.60 |
| CN(C)C(=O)c1cnc2ccn(-c3cncc(-c4ccc(N5CCCC5=O)cc4)c3)c2c1 [Example 254, N,N-dimethyl-1-(5-(4-(2-oxopyrrolidin-1-yl)phenyl)pyridin-3-yl)-1H-pyrrolo[3,2-b]pyridine-6-carboxamide] | 6.00 to 7.00 | 6.00 to 7.00 |
| CCc1c(C)[nH]c2c(-c3cncc(-c4ccc(N5CCCC5=O)cc4)c3)cnn2c1=O [Example 288, 6-ethyl-5-methyl-3-(5-(4-(2-oxopyrrolidin-1-yl)phenyl)pyridin-3-yl)pyrazolo[1,5-a]pyrimidin-7(4H)-one] | 6.00 to 7.00 | 6.00 to 7.00 |
| CN(C)C(=O)c1ccc(-c2cc(-c3ccnc4[nH]c(C(N)=O)cc34)cnc2N)nc1 [Example 143, 4-(2′-amino-5-(dimethylcarbamoyl)-[2,3′-bipyridin]-5′-yl)-1H-pyrrolo[2,3-b]pyridine-2-carboxamide] | 7.00 to 8.00 | 6.00 to 7.00 |

The remaining lines, values ahead:

| pIC50 (GST tagged PIP4KtypeIIB) | pIC50 (GST tagged PIP4KtypeIIA) | SMILES |
| --- | --- | --- |
| 7.00 to 8.00 | 5.60 to 6.00 | CN(C)C(=O)c1ccc(-c2cc(-c3ccnc4[nH]c(C(=O)NC5CCNC5=O)cc34)cnc2N)nc1 (centres unmarked) [Example 149, 4-(2′-amino-5-(dimethylcarbamoyl)-[2,3′-bipyridin]-5′-yl)-N-(2-oxopyrrolidin-3-yl)-1H-pyrrolo[2,3-b]pyridine-2-carboxamide] |
| 7.00 to 8.00 | 6.00 to 7.00 | O=C(NCc1ccncc1)c1cc2c(-c3cncc(-c4ccc(N5CCCC5=O)cc4)c3)ccnc2[nH]1 [Example 233, 4-(5-(4-(2-oxopyrrolidin-1-yl)phenyl)pyridin-3-yl)-N-(pyridin-4-ylmethyl)-1H-pyrrolo[2,3-b]pyridine-2-carboxamide] |
| 7.00 to 8.00 | 7.00 to 8.00 | O=C1CCCN1c1ccc(-c2cncc(-c3n[nH]c4ncc(C5CC5)cc34)c2)cc1 [Example 283, 1-(4-(5-(5-cyclopropyl-1H-pyrazolo[3,4-b]pyridin-3-yl)pyridin-3-yl)phenyl)pyrrolidin-2-one] |
| 7.00 to 8.00 | 6.00 to 7.00 | CN1CCn2c(cc3c(-c4cncc(-c5ccc(N6CC7(CC7)CC6=O)cc5)c4)ccnc32)C1=O [Example 201, 7-methyl-4-(5-(4-(6-oxo-5-azaspiro[2.4]heptan-5-yl)phenyl)pyridin-3-yl)-8,9-dihydropyrido[3′,2′:4,5]pyrrolo[1,2-a]pyrazin-6(7H)-one] |
| 7.00 to 8.00 | 6.00 to 7.00 | O=C(NCCc1ccccn1)c1cc2c(-c3cncc(-c4ccc(N5CCCC5=O)cc4)c3)ccnc2[nH]1 [Example 246, 4-(5-(4-(2-oxopyrrolidin-1-yl)phenyl)pyridin-3-yl)-N-(2-(pyridin-2-yl)ethyl)-1H-pyrrolo[2,3-b]pyridine-2-carboxamide] |
| 7.00 to 8.00 | 7.00 to 8.00 | O=C1CCCN1c1ccc(-c2cncc(-c3c4n(c5ncc(Br)cc35)CCC4)c2)cc1 [Example 353, 1-(4-(5-(3-bromo-7,8-dihydro-6H-pyrido[3,2-b]pyrrolizin-5-yl)pyridin-3-yl)phenyl)pyrrolidin-2-one] |
| 7.00 to 8.00 | 6.00 to 7.00 | C[C@@H]1CC(=O)N(c2ccc(-c3cncc(-c4ccnc5c4cc4n5CCN(C)C4=O)c3)cc2)C1 [Example 198, (R)-7-methyl-4-(5-(4-(4-methyl-2-oxopyrrolidin-1-yl)phenyl)pyridin-3-yl)-8,9-dihydropyrido[3′,2′:4,5]pyrrolo[1,2-a]pyrazin-6(7H)-one] |
| 7.00 to 8.00 | 6.00 to 7.00 | C[C@H]1CC(=O)N(c2ccc(-c3cncc(-c4ccnc5c4cc4n5CCN(C)C4=O)c3)cc2)C1 [Example 199, (S)-7-methyl-4-(5-(4-(4-methyl-2-oxopyrrolidin-1-yl)phenyl)pyridin-3-yl)-8,9-dihydropyrido[3′,2′:4,5]pyrrolo[1,2-a]pyrazin-6(7H)-one] |

— US11919902B2, “Aryl-bipyridine amine derivatives as phosphatidylinositol phosphate kinase inhibitors” (HiberCell, Inc., priority 2017, dated 2024)
